Reference: patent US9775902B2, “Compounds and methods for treatment of stroke” (FIBROGEN, INC, priority 2006, dated 2017)
Like-named read-outs stand apart in the source and are kept apart here.

Columns and labels:
erythropoietin (EPO) [1] = assay: EPO expression in Hep3B cells (QUANTIKINE immunoassay of conditioned media); type: cell-based, Human; details: for Fold Increase Over Control: EPO, vs 1% DMSO control; for EPO: conditioned media after overnight incubation with compound
Description: The effect of compounds of the present invention on expression of cytoprotective and neuroprotective factors in cells was evaluated as follows. Human cells derived from hepatocarcinoma (Hep3B) tissue (see, e.g., American Type Culture Collection, Manassas Va.) were seeded into 35 mm culture dishes and grown at 37° C., 20% O2, 5% CO2 in Minimal Essential Medium (MEM), Earle's balanced salt solution (Mediatech Inc., Herndon Va.), 2 mM L-glutamine, 0.1 mM non-essential amino acids, 1 mM sodium pyruvate, and 10% FBS. When cell layers reached confluence, the media was replaced with OPTI-MEM media (Invitrogen Life Technologies, Carlsbad Calif.) and cell layers were incubated for approximately 24 hours in 20% O2, 5% CO2 at 37° C. Various compounds of the present invention or 1% DMSO (negative control) were then added to existing media and incubation was continued overnight.
Following incubation, the conditioned media was collected from cell cultures and analyzed for erythropoietin (EPO) expression using a QUANTIKINE immunoassay (R&D Systems, Inc., Minneapolis Minn.) according to the manufacturer's instructions.

erythropoietin (EPO) [2] = assay: EPO expression in Kelly neuroblastoma cells; type: cell-based; details: for EPO: conditioned media after overnight incubation
Description: (§1) The effect of compounds of the present invention on expression of cytoprotective and neuroprotective factors in neuroblastoma cells was evaluated as follows. Kelly neuroblastoma cells (see, e.g., DSMZ, cat# ACC-355, Braunschweig Germany) were treated with various compounds of the present invention or 1% DMSO (negative control). Following an overnight incubation, the conditioned media was collected from cell cultures and analyzed for erythropoietin (EPO) and vascular endothelial growth factor (VEGF) expression using a QUANTIKINE immunoassay (R&D Systems, Inc., Minneapolis Minn.) according to the manufacturer's instructions.

[3] = tested on: vascular endothelial growth factor (VEGF); assay: VEGF expression in Kelly neuroblastoma cells; type: cell-based; details: for VEGF: conditioned media after overnight incubation
Description: as §1

erythropoietin [4] = assay: Plasma EPO in mice after intravenous injection; type: in vivo, Swiss Webster mice; details: mouse plasma, 20 mg/kg i.v., four hours after injection; for fold induction at 20 mg/kg: iv, 4 h, read-out: EPO Fold Increase
Description: (§2) The effect of compounds of the present invention on expression of cytoprotective and neuroprotective factors in vivo was evaluated as follows. In one series of experiments, male Swiss Webster mice (29-34 g) were administered various compounds of the present invention via intravenous injection into the caudal tail vein. Animals treated by intravenous injection received a 6 ml/kg volume of either 5% Dextrose with an equimolar amount of NaOH or Meglumine (vehicle control) or 20 mg/kg of a compound of the present invention in 5% dextrose with an equimolar amount of NaOH or Meglumine. Four hours after injection, the animals were anesthetized and exsanguinated. Plasma samples were collected in EDTA and heparin coated microtainer tubes. Plasma samples were assayed for erythropoietin and VEGF using commercially-available ELISA kits purchased from R & D Systems (Minneapolis Minn.).

VEGF [5] = assay: Plasma VEGF in mice after intravenous injection; type: in vivo, Swiss Webster mice; details: mouse plasma, 20 mg/kg i.v., four hours after injection; for fold induction at 20 mg/kg: iv, 4 h, read-out: VEGF Fold Increase
Description: as §2

[6] = tested on: C57BL/6 mice, permanent occlusion of the MCA; assay: Permanent middle cerebral artery occlusion (pMCAO) in C57BL/6 mice: infarct volume and edema; type: in vivo; details: Mus musculus, iv, 24 h, C57BL/6 mice pMCAO, 20-60 mg/kg i.v., 24 hours after MCA occlusion, read-out: Percent Reduction in Infarct Volume
Description: The effect of compounds of the present invention on infarct volume and edema associated with stroke was examined in an animal model of ischemic stroke. In these studies, mice were subjected to permanent occlusion of the middle cerebral artery. Mice were anesthetized intraperitoneally with avertin (0.5 mg/g). Mice were then immobilized in a rodent stereotaxic frame (Kopf Instruments, Tujunga Calif.) and maintained with avertin as needed. The surgical area of the head was swabbed with 70% ethanol and a lateral incision was made between the right orbit and the right ear. […] The distal course of the middle cerebral artery (MCA) was visible through the translucent skull. A small burr-hole craniotomy was performed with a micro-drill (Fine Science Tools, Foster City Calif.). The meninges/dura was removed and the MCA was coagulated by bipolar diathermy. The muscle and soft tissue were replaced and the incision closed with vet-bond adhesive (3M, St. Paul Minn.). These studies were performed in two different mouse models of pMCAO as described below.
In one series of experiments, male C57BL/6 mice (25-35 g) were subjected to permanent occlusion of the MCA as described above. Compounds of the present invention were administered by intravenous injection at various times before or after MCA occlusion (see Table 7). Animals administered compound by intravenous injection received a 6 ml/kg volume of either 5% Dextrose with an equimolar amount of Meglumine (vehicle control) or 20-60 mg/kg of a compound of the present invention in 5% dextrose with an equimolar amount of Meglumine. Body temperature of the animals was maintained by use of a heating pad both during and after surgery. Twenty-four hours after MCA occlusion animals were euthanized with CO2 and their brains removed. After removal, the brain was sliced in 7 coronal sections, each 1 mm thick. The sections were placed rostral side down in a petri dish and stained with 1% Triphenyl tetrazolium chloride for 20 minutes at 37° C. for determination of infarct volume. Brain sections were then digitally photographed and analyzed for changes in infarct volume and extent of edema. Infarct volumes were determined by measuring the infarcted (i.e., non-stained) areas of each brain section and multiplying this value by the section thickness. Extent of edema was determined by the net increase in volume of the ipsilateral cortex compared to that of the contralateral cortex of brain sections.
The effect of compounds of the present invention administered at various times following the onset of stroke was examined further as follows. In these studies, changes in infarct volume were measured using an animal model of stroke when compounds of the present invention were administered from 0 to 8 hours following permanent MCA occlusion. In one series of experiments, male C57BL/6 mice (25-35 g) were subjected to permanent occlusion of the MCA as described above. Compound F was administered to the animals by a single intravenous bolus injection at various times up to 5 hours after MCA occlusion (see Table 8 below). Animals administered compound by intravenous injection received a 6 ml/kg volume of either 5% Dextrose with an equimolar amount of NaOH (vehicle control) or 60 mg/kg of Compound F in 5% dextrose with an equimolar amount of NaOH. Body temperature of the animals was maintained by use of a heating pad both during and after surgery. Changes in infarct volumes were determined as described above.
In another set of experiments, male C57BL/6 mice (25-35 g) were subjected to permanent occlusion of the MCA as described above. Compound F was administered by single intravenous bolus injection at various times up to 8 hours after MCA occlusion (see Table 9 below). Animals administered compound by intravenous injection received a 6 ml/kg volume of either 5% Dextrose with an equimolar amount of Meglumine (vehicle control) or 60 mg/kg of Compound F in 5% dextrose with an equimolar amount of Meglumine. […]

erythropoietin [7] = assay: Plasma EPO in mice after oral gavage; type: in vivo, Swiss Webster mice; details: mouse plasma, oral gavage 6-60 mg/kg, six hours; for EPO: human EPO ELISA kit (*)
Description: (§3) In another series of experiments, male Swiss Webster mice (29-34 g) were administered various compounds of the present invention via oral gavage using a ball-tipped gavage needle. Animals treated by oral gavage received a 4-10 ml/kg volume of either 0.5% carboxymethyl cellulose with or without 0.1% Polysorbate 80 (vehicle control) or various doses (6-60 mg/kg) of a compound of the present invention in 0.5% CMC, with or without 0.1% Polysorbate 80. Blood samples were collected and tissues were processed as described above. Six hours after injection, the animals were anesthetized and exsanguinated.
(§4) Plasma samples were collected in EDTA and heparin coated microtainer tubes. Plasma samples were assayed for erythropoietin and VEGF using commercially-available ELISA kits purchased from R & D Systems (Minneapolis Minn.).

VEGF [8] = assay: Plasma VEGF in mice after oral gavage; type: in vivo, Swiss Webster mice; details: mouse plasma, oral gavage 6-60 mg/kg, six hours
Description: as §3, §4

[9] = compound given 4 hr after occlusion

Compound	Fold Increase Over Control (erythropoietin (EPO) [1])	EPO (erythropoietin (EPO) [1])	EPO Fold Increase (erythropoietin (EPO) [2])	EPO (erythropoietin (EPO) [2])	VEGF Fold Increase [3]	VEGF [3]	EPO (erythropoietin [4]; mouse EPO ELISA kit (**))	fold induction at 20 mg/kg (VEGF [5])	VEGF (VEGF [5])	inhibition in vivo at up to 20 mg/kg [6, 9]	fold induction at 20 mg/kg (erythropoietin [4])	inhibition in vivo at up to 20 mg/kg ([6]; compound given 0 hr)	EPO Fold Increase (erythropoietin [7])	EPO (erythropoietin [7])	VEGF (VEGF [8])	VEGF Fold Increase (VEGF [8])	EPO (erythropoietin [4]; human EPO ELISA kit (*))
O=C(O)CNC(=O)c1nc(Br)c2ccsc2c1O [Compound AE, [(4-Bromo-7-hydroxy-thieno[3,2-c]pyridine-6-carbonyl)-amino]-acetic acid]	3.0	12.6 mIU/ml	3.6	95.5 mIU/ml	2.7	3710.0 pg/mL	3825 pg/mL	1.45	29 pg/mL	63%	–	–	–	–	–	–	–
N#Cc1nc(C(=O)NCC(=O)O)c(O)c2cc(Oc3ccc4c(c3)OCO4)ccc12 [Compound AN, {[6-(Benzo[1,3]dioxol-5-yloxy)-1-cyano-4-hydroxy-isoquinoline-3-carbonyl]-amino}-acetic acid]	16.2	42.8 mIU/ml	13.28	251 mIU/ml	5.3	7252 pg/mL	14964 pg/mL	1.05	39 pg/mL	46%	26.2	–	–	–	–	–	–
Cc1nc2ccc(Oc3ccc4c(O)c(C(=O)NCC(=O)O)nc(C)c4c3)cc2o1 [Compound AF, {[4-Hydroxy-1-methyl-7-(2-methyl-benzooxazol-6-yloxy)-isoquinoline-3-carbonyl]-amino}-acetic acid]	15.3	101.6 mIU/ml	12.24	231.3 mIU/ml	3.5	5124 pg/mL	192 pg/mL	2.83	82 pg/mL	–	21.3	21%	–	–	–	–	–
N#Cc1nc(C(=O)NCC(=O)O)c(O)c2ccc(Oc3ccc(F)cc3)cc12 [Compound R, {[1-Cyano-7-(4-fluoro-phenoxy)-4-hydroxy-isoquinoline-3-carbonyl]-amino}-acetic acid]	25.3	49.1 mIU/ml	19.71	372.6 mIU/ml	7.4	2735 pg/mL	555.5 pg/mL	1.38	54 pg/mL	–	52.4	32%	–	–	–	–	–
N#Cc1nc(C(=O)NCC(=O)O)c(O)c2c(Oc3ccccc3)cccc12 [Compound AM, [(1-Cyano-4-hydroxy-5-phenoxy-isoquinoline-3-carbonyl)-amino]-acetic acid]	8.2	44.3 mIU/ml	6.25	118.07 mIU/ml	4.0	5825 pg/mL	28206 pg/mL	0.38	24 pg/mL	71%	235	–	–	–	–	–	–
CC(NC(=O)c1ncc2cc(Sc3ccccc3)ccc2c1O)C(=O)O (stereo not shown) [Compound Y, 2-[(4-Hydroxy-7-phenylsulfanyl-isoquinoline-3-carbonyl)-amino]-propionic acid]	–	–	–	–	–	–	–	–	–	–	–	–	8.85	11.5 mIU/ml	52.7 pg/mL	2.28	–
Cc1nc2ccc(Oc3ccc4c(O)c(C(=O)NCC(=O)O)ncc4c3)cc2o1 [Compound N, {[4-Hydroxy-7-(2-methyl-benzooxazol-6-yloxy)-isoquinoline-3-carbonyl]-amino}-acetic acid]	13.5	89.9 mIU/ml	14.52	380.5 mIU/ml	4.6	6316 pg/mL	63.2 pg/mL	2.28	66 pg/mL	–	70.2	46%	–	–	–	–	–
CC(NC(=O)c1ncc2cc(Oc3ccccc3)ccc2c1O)C(=O)O (stereo not shown) [Compound I, 2-[(4-Hydroxy-7-phenoxy-isoquinoline-3-carbonyl)-amino]-propionic acid]	–	41.0 mIU/ml	3.4	14.8 mIU/ml	7.2	2370.0 pg/mL	–	2.13	77.8 pg/mL	–	155	–	16.46	21.4 mIU/ml	62.7 pg/mL	2.71	62.1 mIU/ml
